# “Also recorded” adds a separate entry of the source. Where a SMILES comes first, the peptide text is derived from it. Bridges are numbered along the chain shown (N, C = ends). [ ]: non-standard residue; d: D form. hArg = N=C(N)NCCCC[C@H](N)C(=O)O; Mpa = O=C(O)CCS
# Assays:
# [1] = test system: WT (C57BL/6) mice; test: Intravital microscopy, laser-induced cremaster arteriolar injury, WT mice; format: in vivo, mouse; conditions: iv 5 μg/g BW
# Method: Intravital microscopy was performed in a mouse model of laser-induced cremaster arteriolar injury as previously described. WT (C57BL/6), littermate WT control, and CKO and KO male mice (8-10 weeks old) were anesthetized with intraperitoneal injection of ketamine and xylazine. The cremaster muscle was exteriorized and superfused with 37° C. bicarbonate-buffered saline throughout the experiment. Arteriolar wall injury was induced by laser ablation (Photonics Instruments) as previously described. Multiple thrombi were generated in at least 3 to 4 different arterioles of 1 mouse, with new thrombi formed upstream of earlier thrombi to minimize any contribution from thrombi generated earlier in the mouse. Platelets and fibrin were visualized by infusion of DyLight 649-conjugated anti-CD42c (0.2 μg/g body weight [BW]) and Alexa Fluor 488-conjugated anti-fibrin (0.2 μg/g BW) antibodies, respectively. To detect extracellular Ero1α, Alexa Fluor 488-conjugated rabbit IgG or nonblocking anti-ERO1α antibodies (0.3 μg/g BW) were injected into WT (C57BL/6), WT control, Ero1α KO, and Ero1α CKO mice. In some experiments, wtERO1α or activity-null ERO1α-Cys94Ser (mutant ERO1α [mERO1α]; 4 μg/g BW) was infused into Ero1α KO mice before imaging. To test the effect of ERO1α inhibitors or blocking anti-ERO1α antibodies, WT (C57BL/6) mice were treated with intravenous injection of vehicle control, eptifibatide (5 μg/g BW), B12-5 (5 μg/g BW), isotype control IgGs, anti-ERO1α (15E9, 1-3 μg/g BW), or anti-PDI (BD34, 3 μg/g BW) 3 minutes before treatment with the anti-CD42c and anti-fibrin antibodies. The same dose of eptifibatide was injected every 20 minutes to maintain the inhibitory effect. […] Fluorescence and bright-field images were captured in 6 to 10 different cremaster arterioles with a diameter of 30 to 45 μm in each mouse and recorded using either an Olympus BX61W microscope with a 60×1.0 salt water immersion objective or a Zeiss Axio Examiner Z1 microscope system with a Yokogawa confocal spinning disk (CSU-W1) equipped with 4 stack laser system (405-, 488-, 561-, and 637-nm wavelengths). Images were collected with a high-speed, high-resolution camera (2304×2304 pixel format; ORCA-Fusion BT sCMOS, Hamamatsu). Time 0 was set to when image capture began on each vessel. The data were analyzed using Slidebook (version 6.0; Intelligent Imaging Innovations). Due to the significant variation between vessels in the same mouse, the result from each vessel was counted as an individual value. Representative images were chosen that most closely resemble the mean values in the quantifications.
# [2] = test system: WT mice; test: FeCl3-induced carotid arterial thrombosis; format: in vivo, mouse; conditions: 5 μg/g BW, vs vehicle control
# Method: FIG. […]) is an exemplary embodiment of B12-5 having an antithrombotic effect without prolonging tail bleeding times in mice in accordance with the present disclosure. FIG. […]): Ex vivo effects of B12-5. Wild type (WT; […] One hour later, blood was drawn, followed by isolating platelets. P-selectin exposure (FIG. 19A) and αIIbβ3 integrin activation (FIG. 19B) were assessed in flow cytometry. FIG. 19C: Platelet aggregation was measured after treatment with 0.025 U/mL thrombin. The data represent the mean±SD (n=4). FIG. 19D: The plasma levels of B12-5 were analyzed by liquid chromatography-tandem mass spectrometry (LC-MS/MS) after intravenous injection of the compound (5 μg/g BW) into WT mice and quantified by comparison with a standard curve of B12-5 (mean±SD, n=3). FIG. 19E and FIG. 19F: After laser-induced cremaster arteriolar injury, intravital microscopy was conducted with WT mice pretreated with intravenous injection of saline, eptifibatide (5 μg/g BW), vehicle, or B12-5 (5 μg/g BW). The median integrated fluorescence intensities of anti-CD42c (F platelet) and anti-fibrin (F fibrin) antibodies (n=37-42 arterioles in 6 mice per group). Quantification of the antibody signal at a different time point after laser injury. FIG. 19G: Comparison of B12-5 (5 μg/g BW) with eptifibatide (5 μg/g BW) and their respective controls in inhibiting FeCl3-induced carotid artery thrombosis in WT mice. FIG. 19H and FIG. 19I: WT mice were treated with intravenous injection of vehicle control, eptifibatide (5 μg/g BW), or B12-5 (5 μg/g BW). Thirty minutes later, tail bleeding times and Hb contents were measured after amputation of the tail tip. […] Twenty-three hours later, neurological deficits were assessed by the Bederson score and grip test, and infarct volume was measured as described in Methods. […] Twenty-three hours later, the neurological deficit and infarct volume were measured as described above. […] P values determined by unpaired Student t test (FIG. […]), FIG. 19K, and FIG. 19O) or Mann-Whitney U test (FIG. 19(E-1), FIG. 19L, FIG. 19M, FIG. 19P, and FIG. 19Q). […]
structure (smiles),measurement,setting,value
"N=C(N)NCCCC[C@@H]1NC(=O)CCSSC[C@@H](C(N)=O)NC(=O)[C@@H]2CCCN2C(=O)[C@H](Cc2c[nH]c3ccccc23)NC(=O)[C@H](CC(=O)O)NC(=O)CNC1=O [eptifibatide, reference compound] ([Mpa][hArg]GDWPC-NH2; disulfide 1-7)",fibrin generation,[1],without reducing; also recorded: without affecting
same,platelet thrombus formation,[1],inhibit
same,time to occlusion,[2],significantly prolonged

# — US20240366624A1, “METHODS AND COMPOSITIONS FOR TREATING THROMBOTIC DISEASE” (Washington University, priority 2023, published 2024)
